Laboratory results from the Kinase Knowledgebase extract (Sharma et al. 2016).

Target: PIK3CG (human) (UniProt P48736)
Experiment: Assessment of PIK3CG Kinase Activity

Sequence of PIK3CG (human) (P48736 whole entry, looked up): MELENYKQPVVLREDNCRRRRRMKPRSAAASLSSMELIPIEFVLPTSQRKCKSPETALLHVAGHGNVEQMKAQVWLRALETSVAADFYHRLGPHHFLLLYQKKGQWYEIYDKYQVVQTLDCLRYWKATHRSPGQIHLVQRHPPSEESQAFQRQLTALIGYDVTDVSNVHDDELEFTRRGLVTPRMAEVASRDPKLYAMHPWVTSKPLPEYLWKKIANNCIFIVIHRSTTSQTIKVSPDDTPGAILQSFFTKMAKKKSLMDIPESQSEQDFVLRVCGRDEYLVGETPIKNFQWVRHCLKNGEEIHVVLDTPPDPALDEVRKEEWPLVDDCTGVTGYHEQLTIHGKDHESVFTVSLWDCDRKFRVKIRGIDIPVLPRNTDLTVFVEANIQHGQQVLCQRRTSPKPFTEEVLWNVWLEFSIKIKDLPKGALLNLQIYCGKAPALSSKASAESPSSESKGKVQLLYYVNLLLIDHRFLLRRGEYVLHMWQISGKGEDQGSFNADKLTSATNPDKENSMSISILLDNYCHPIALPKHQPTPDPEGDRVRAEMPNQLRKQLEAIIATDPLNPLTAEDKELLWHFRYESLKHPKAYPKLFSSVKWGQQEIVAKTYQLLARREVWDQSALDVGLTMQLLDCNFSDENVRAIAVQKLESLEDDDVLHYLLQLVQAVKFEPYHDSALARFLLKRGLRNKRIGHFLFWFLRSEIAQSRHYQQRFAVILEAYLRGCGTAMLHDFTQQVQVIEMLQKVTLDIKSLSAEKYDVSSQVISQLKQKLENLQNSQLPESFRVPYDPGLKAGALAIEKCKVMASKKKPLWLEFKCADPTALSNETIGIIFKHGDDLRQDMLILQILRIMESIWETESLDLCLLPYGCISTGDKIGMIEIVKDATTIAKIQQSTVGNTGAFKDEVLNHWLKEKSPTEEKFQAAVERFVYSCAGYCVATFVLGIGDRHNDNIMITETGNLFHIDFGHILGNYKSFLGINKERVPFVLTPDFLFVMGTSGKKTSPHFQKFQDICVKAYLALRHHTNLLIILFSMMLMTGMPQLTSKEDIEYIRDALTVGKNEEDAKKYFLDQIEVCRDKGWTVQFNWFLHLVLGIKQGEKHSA

SMILES	IC50 [nM]
CC(=O)Nc1nc2c(s1)-c1nc(-c3cc(C#CCNC(=O)NC4CCCC4)ccc3Cl)ncc1CC2	< 600
CC(=O)Nc1nc2c(s1)-c1nc(-c3cc(C#CC4CCN(C(=O)N5CCOCC5)CC4)ccc3Cl)ncc1CC2	< 600
CC(=O)Nc1nc2c(s1)-c1nc(-c3cc(C#CCN(C)S(=O)(=O)CC(F)(F)F)ccc3Cl)ncc1CC2	< 600
COC1(C#Cc2ccc(F)c(-c3ncc4c(n3)-c3sc(NC(C)=O)nc3CC4)c2)CCN(C)CC1	< 600
CC(=O)Nc1nc2c(s1)-c1nc(-c3cc(C#CCCCNC4CCN(C)CC4)ccc3Cl)ncc1CC2	< 600
CC(=O)Nc1nc2c(s1)-c1nc(-c3cc(C#CCNC(=O)Cn4ccnc4)ccc3Cl)ncc1CC2	< 600
CC(=O)Nc1nc2c(s1)-c1nc(-c3cc(C#CC4CCN(C(C)=O)CC4)ccc3Cl)ncc1CC2	< 600
CC(=O)Nc1nc2c(s1)-c1nc(-c3cc(C#CCN4CCNC(=O)C4)ccc3Cl)ncc1CC2	< 600
